Measured values: PubChem BioAssay (NCI)
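Grown in 96-well plates, cells were treated for 48 hours with each compound at five concentrations. Insufficient inhibition: endpoint recorded as highest concentration tested. GI50 marks 50% less growth. TGI is the concentration that stops growth completely.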

Legend:
Test in all cases: DTP human tumour cell line panel, 48 h
[1] = test system: UACC-62 melanoma
[2] = test system: SK-MEL-2 melanoma
[3] = test system: SNB-75 CNS
[4] = test system: HT29 colon
[5] = test system: NCI-H460 lung
[6] = test system: SR leukemia
[7] = test system: EKVX NSCLC
[8] = test system: HOP-92 NSCLC
[9] = test system: HS 578T breast
[10] = test system: NCI/ADR-RES ovarian

## C[Si](C)(C)CN1C(=O)c2ccccc2C1(O)c1ccccc1 (centres undefined)
[1]
  TGI: > 100 µM
[2]
  TGI: > 100 µM
[3]
  TGI: > 100 µM
[4]
  TGI: > 100 µM
[5]
  TGI: > 100 µM
[6]
  TGI: > 100 µM
[7]
  TGI: > 100 µM
[8]
  TGI: 97.9 µM

## CC1CCC(C(C)(C)c2ccccc2)C(=O)C1 (centres undefined)
[1]
  TGI: > 100 µM
[2]
  TGI: > 100 µM
[3]
  TGI: > 100 µM
[4]
  TGI: > 100 µM
[5]
  TGI: > 100 µM
[7]
  TGI: > 100 µM
[8]
  TGI: > 100 µM

## O=C1c2ccc3c4ccccc4n(-c4ccccc4)c3c2C(=O)N1c1ccc(Cl)cc1
[1]
  TGI: > 100 µM
[2]
  TGI: > 100 µM
[3]
  TGI: > 100 µM
[4]
  TGI: > 100 µM
[5]
  TGI: > 100 µM
[6]
  TGI: > 100 µM
[7]
  TGI: > 100 µM
[8]
  TGI: 75 µM

## COc1ccc(/C=N/N=C(\N)NO)c(OC)c1C
[1]
  TGI: > 100 µM
[2]
  TGI: 70.6 µM
[4]
  TGI: > 100 µM
[5]
  TGI: > 100 µM
[6]
  TGI: > 100 µM
[7]
  TGI: 41.9 µM
[8]
  TGI: 72.5 µM

## O=C1/C(=C/N2N=C(c3ccc4ccccc4c3)CC2c2ccccc2O)SC(=S)N1c1cccnc1 (centres undefined)
[1]
  GI50: 4.06 µM
  TGI: > 100 µM
[3]
  GI50: 0.987 µM
  TGI: 13.1 µM
[4]
  GI50: 3.05 µM
  TGI: > 100 µM
[5]
  GI50: 0.514 µM
  TGI: > 100 µM
[9]
  GI50: 2.55 µM
  TGI: > 100 µM
[10]
  GI50: 3.43 µM
  TGI: > 100 µM
[8]
  GI50: 5.2 µM
  TGI: > 100 µM

## COc1ccc(/C=C/c2cnccn2)cc1OC
[1]
  TGI: > 10 µM
[2]
  TGI: > 10 µM
[3]
  TGI: > 10 µM
[4]
  TGI: > 10 µM
[5]
  TGI: > 10 µM
[9]
  TGI: > 10 µM
[10]
  TGI: > 10 µM
[7]
  TGI: > 10 µM
[8]
  TGI: > 10 µM

## CN(C)CCNc1nc2ccccc2c2c(=O)c3cc(F)ccc3sc12
[1]
  GI50: 1.73 µM
  TGI: 3.18 µM
[2]
  GI50: 2.05 µM
  TGI: 4.06 µM
[3]
  GI50: 1.45 µM
  TGI: 2.8 µM
[4]
  GI50: 1.68 µM
  TGI: 3.48 µM
[5]
  GI50: 1.79 µM
  TGI: 3.42 µM
[6]
  GI50: 3.27 µM
  TGI: > 100 µM
[10]
  GI50: 1.63 µM
  TGI: 3.06 µM

## COc1ccc(-c2cc(-c3ccc(Nc4ccnc5cc(Cl)ccc45)cc3)nc(N3CCOCC3)n2)cc1
[2]
  GI50: 11.7 µM
  TGI: 61.5 µM
[3]
  GI50: 1.52 µM
  TGI: 5.32 µM
[4]
  GI50: 3.28 µM
  TGI: > 100 µM
[10]
  GI50: 3.01 µM
  TGI: > 100 µM
[7]
  GI50: > 100 µM
  TGI: > 100 µM
[8]
  GI50: 4.83 µM
  TGI: 49.4 µM

## C1COCCSC2=C(SCCO1)SC(=C1SC3=C(SCCOCCOCCS3)S1)S2
[1]
  TGI: > 100 µM
[2]
  TGI: > 100 µM
[3]
  TGI: 51.4 µM
[4]
  TGI: > 100 µM
[5]
  TGI: > 100 µM
[6]
  TGI: > 100 µM
[7]
  TGI: > 100 µM
[8]
  TGI: > 100 µM

## COc1cc(-c2nnc3n2NC=C(C(=O)O)S3)cc(OC)c1OC
[1]
  TGI: > 100 µM
[2]
  TGI: > 100 µM
[3]
  TGI: > 100 µM
[4]
  TGI: > 100 µM
[5]
  TGI: > 100 µM
[6]
  TGI: > 100 µM
[7]
  TGI: > 100 µM
[8]
  TGI: > 100 µM

## Cc1cc(NCCCCNc2ccnc3cc(Cl)ccc23)nc(Nc2ccc(C(=O)N3CCCCC3)cc2)n1
[2]
  GI50: 2.05 µM
  TGI: 3.9 µM
[3]
  GI50: 1.72 µM
  TGI: 3.29 µM
[4]
  GI50: 1.78 µM
  TGI: 4.62 µM
[5]
  GI50: 1.78 µM
  TGI: 3.78 µM
[6]
  GI50: 0.24 µM
  TGI: 0.855 µM
[10]
  GI50: 3.04 µM
  TGI: 11.4 µM
[7]
  GI50: 2.97 µM
  TGI: 10.8 µM
[8]
  GI50: 1.21 µM
  TGI: 3.03 µM

## NC(CCc1ncc(C(=O)O)s1)C(=O)O (centres undefined)
[1]
  TGI: > 100 µM
[3]
  TGI: > 100 µM
[4]
  TGI: > 100 µM
[5]
  TGI: > 100 µM
[7]
  TGI: > 100 µM
[8]
  TGI: > 100 µM

## c1ccc2c(c1)c1ccccc1c1ccccc21
[1]
  GI50: > 100 µM
  TGI: > 100 µM
[2]
  GI50: > 100 µM
  TGI: > 100 µM
[3]
  GI50: > 100 µM
  TGI: > 100 µM
[4]
  GI50: > 100 µM
  TGI: > 100 µM
[5]
  GI50: > 100 µM
  TGI: > 100 µM
[9]
  GI50: > 100 µM
  TGI: > 100 µM
[10]
  GI50: > 100 µM
  TGI: > 100 µM
[8]
  GI50: > 100 µM
  TGI: > 100 µM

## CCOC(=O)C1=C(Nc2ccc(Br)cc2)OCC1=O
[1]
  TGI: > 100 µM
[2]
  TGI: > 100 µM
[3]
  TGI: > 100 µM
[4]
  TGI: > 100 µM
[5]
  TGI: > 100 µM
[6]
  TGI: > 100 µM
[7]
  TGI: > 100 µM
[8]
  TGI: > 100 µM

## COc1ccc2nc3cc(Cl)ccc3c(Sc3ccc(NC(C)=O)cc3)c2c1
[1]
  TGI: > 42.1 µM
[2]
  TGI: > 26.4 µM
[3]
  TGI: > 54.9 µM
[4]
  TGI: > 100 µM
[5]
  TGI: > 47 µM
[6]
  TGI: 16.1 µM
[7]
  TGI: > 23.8 µM
[8]
  TGI: > 27 µM

## Cc1c(Cl)cccc1NC(=O)c1cccc([N+](=O)[O-])c1O
[1]
  TGI: 7.74 µM
[2]
  TGI: 36.9 µM
[3]
  TGI: 66.1 µM
[4]
  TGI: 82 µM
[5]
  TGI: 43.3 µM
[6]
  TGI: 74.8 µM
[7]
  TGI: > 87.6 µM
[8]
  TGI: 7.88 µM

## N#CC(C#N)=C1CCCOc2c1ccc1ccccc21
[1]
  GI50: > 100 µM
  TGI: > 100 µM
[4]
  GI50: > 100 µM
  TGI: > 100 µM
[5]
  GI50: > 100 µM
  TGI: > 100 µM
[9]
  GI50: 33.4 µM
  TGI: > 100 µM
[10]
  GI50: > 100 µM
  TGI: > 100 µM
[7]
  GI50: 46.8 µM
  TGI: > 100 µM
[8]
  GI50: 15.8 µM
  TGI: 71.7 µM

## CC12CCC(=O)N1c1cccnc1N2 (centres undefined)
[1]
  TGI: > 100 µM
[2]
  TGI: > 100 µM
[3]
  TGI: > 100 µM
[4]
  TGI: > 100 µM
[5]
  TGI: > 100 µM
[7]
  TGI: > 100 µM
[8]
  TGI: > 100 µM

## COC(=O)c1c[nH]cc1CCCCc1c[nH]cc1C(=O)OC
[2]
  TGI: > 100 µM
[4]
  TGI: > 100 µM
[5]
  TGI: > 100 µM
[6]
  TGI: > 100 µM
[7]
  TGI: > 100 µM
[8]
  TGI: > 100 µM

## COc1cc(/C=N\O[Si](C)(C)C(C)(C)C)ccc1O[Si](C)(C)C(C)(C)C
[1]
  TGI: > 100 µM
[2]
  TGI: > 100 µM
[3]
  TGI: > 100 µM
[4]
  TGI: > 100 µM
[5]
  TGI: > 100 µM
[7]
  TGI: > 100 µM
[8]
  TGI: 60.1 µM

## COC(=O)C(=O)CC(=O)c1cccc(OC)c1
[1]
  TGI: > 100 µM
[3]
  TGI: > 100 µM
[4]
  TGI: > 100 µM
[5]
  TGI: > 100 µM
[9]
  TGI: > 100 µM
[10]
  TGI: > 100 µM
[7]
  TGI: > 100 µM

## COc1cc(OC)c2sc(-c3ccc(-n4cncc4-c4cc(OC)c(OC)c(OC)c4)cc3)nc2c1
[1]
  GI50: 4.14 µM
  TGI: > 100 µM
[2]
  GI50: 6.09 µM
  TGI: > 100 µM
[3]
  GI50: 6.47 µM
  TGI: > 100 µM
[4]
  GI50: 4.88 µM
  TGI: > 100 µM
[5]
  GI50: 4.67 µM
  TGI: > 100 µM
[6]
  GI50: 3.24 µM
  TGI: > 100 µM
[10]
  GI50: 5.65 µM
  TGI: > 100 µM
[7]
  GI50: 5.09 µM
  TGI: > 100 µM
